Numbered stars: 1 amine (or outer) side, 2 acyl side, 3 side chain; on linkers, the order of the positions; unused ones are H or OH. Bridge positions count the residues as written; N and C are the ends. Square brackets hold non-standard residues; d marks the D form. Peptide text beside a SMILES is read from it. * marks the point of attachment. C20 diacid = O=C(O)CCCCCCCCCCCCCCCCCCC(=O)*; γGlu = O=C(O)[C@H](CCC(=O)[*:2])N[*:1]; NMeI = CC[C@H](C)[C@H](NC)C(=O)O; Sar = CNCC(=O)O
Key:
[1] = molecular target: T1, human calcitonin receptor (hCTR2) (Homo sapiens, UniProt P30988); experiment: hCTR2 assay: induction of cAMP (AlphaScreen cAMP Assay kit) in COS7 cells expressing hCTR2; format: cell-based; settings: cAMP induction in COS7 cells expressing hCTR2; average of a minimum of 3 determinations; read-out: hCTR2 EC50
T1 construct: expressed in transfected cells
T1 sequence (P30988 25-474): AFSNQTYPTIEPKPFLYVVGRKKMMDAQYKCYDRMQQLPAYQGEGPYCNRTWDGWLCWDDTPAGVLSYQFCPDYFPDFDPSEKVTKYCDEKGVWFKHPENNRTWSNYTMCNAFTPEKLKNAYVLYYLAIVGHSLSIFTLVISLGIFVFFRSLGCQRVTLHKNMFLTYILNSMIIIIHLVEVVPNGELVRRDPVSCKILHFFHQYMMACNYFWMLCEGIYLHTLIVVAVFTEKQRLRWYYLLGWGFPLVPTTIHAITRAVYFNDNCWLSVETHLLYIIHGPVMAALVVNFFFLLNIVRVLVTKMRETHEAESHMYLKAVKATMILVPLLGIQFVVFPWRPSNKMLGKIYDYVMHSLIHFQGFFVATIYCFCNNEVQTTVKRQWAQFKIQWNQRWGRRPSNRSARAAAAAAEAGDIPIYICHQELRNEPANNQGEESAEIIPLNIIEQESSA
Method in brief: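 Peptide-induced cAMP in hCTR2-expressing COS7 cells, 15 min at 37° C with phosphodiesterase inhibitor IBMX (100 µM), detected by AlphaScreen; potency from 4PL curves.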

[2] = Solubility assessment (turbidity absorbance at 325 nm); format: physicochemical; settings: stock 2 mg/ml diluted 1:1, ambient temperature (typically 25°C), n=1; for Solubility, Acetate buffer pH 4: 100 mM acetate buffer pH 4.0; for Solubility, Acetate buffer pH 5: 100 mM acetate buffer pH 5.0; for Solubility, Histidine buffer pH 6: 100 mM histidine buffer pH 6.0; for Solubility, Histidine buffer pH 7: 100 mM histidine buffer pH 7.0; for Solubility, Phosphate buffer pH 6: 100 mM phosphate buffer pH 6.0; for Solubility, Phosphate buffer pH 7: 100 mM phosphate buffer pH 7.0; for Solubility, Phosphate buffer pH 7.5: 100 mM phosphate buffer pH7.5
Method in brief: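 Turbidity read as absorbance at 325 nm (also 280 nm), single samples at ambient temperature (typically 25°C); ≤ 0.02 units counts as ≥ 1 mg/ml soluble. Samples made by 1:1 dilution of a 2 mg/ml acidic stock into 100 mM acetate, histidine or phosphate buffers, pH 4.0–7.5.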

EC50 [1] [nM]	Solubility, Acetate buffer pH 4 [2]	Solubility, Acetate buffer pH 5 [2]	Solubility, Histidine buffer pH 6 [2]	Solubility, Histidine buffer pH 7 [2]	Solubility, Phosphate buffer pH 6 [2]	Solubility, Phosphate buffer pH 7 [2]	Solubility, Phosphate buffer pH 7.5 [2]	SMILES
0.14	II (II indicates solubility ≤ 1 mg/ml)	II (II indicates solubility ≤ 1 mg/ml)	II (II indicates solubility ≤ 1 mg/ml)	II (II indicates solubility ≤ 1 mg/ml)	II (II indicates solubility ≤ 1 mg/ml)	II (II indicates solubility ≤ 1 mg/ml)	II (II indicates solubility ≤ 1 mg/ml)	CC[C@H](C)[C@@H](C(=O)N[C@@H](CC(C)C)C(=O)N[C@@H](CO)C(=O)N[C@@H](CO)C(=O)N[C@H](C(=O)N[C@@H](CC(N)=O)C(=O)N[C@H](C(=O)NCC(=O)N[C@@H](CO)C(=O)N[C@@H](CC(N)=O)C(=O)N[C@H](C(=O)N1CCC[C@H]1C(N)=O)[C@@H](C)O)C(C)C)[C@@H](C)O)N(C)C(=O)[C@H](C)NC(=O)[C@H](Cc1ccccc1)NC(=O)[C@H](CC(N)=O)NC(=O)[C@H](CC(N)=O)NC(=O)[C@H](CO)NC(=O)[C@H](CO)NC(=O)[C@H](Cc1c[nH]cn1)NC(=O)[C@H](Cc1c[nH]cn1)NC(=O)[C@H](CC(C)C)NC(=O)[C@H](Cc1ccccc1)NC(=O)[C@H](CCC(=O)O)NC(=O)[C@H](C)NC(=O)[C@H](CC(C)C)NC(=O)[C@H](CCCNC(=N)N)NC(=O)[C@H](CCC(N)=O)NC(=O)[C@@H](NC(=O)[C@H](C)NC(=O)[C@@H]1CSSC[C@H](NC(=O)[C@H](CCCNC(=N)N)NC(=O)CC[C@H](NC(=O)CCCCCCCCCCCCCCCCCCC(=O)O)C(=O)O)C(=O)N[C@@H](CC(N)=O)C(=O)N[C@@H]([C@@H](C)O)C(=O)N[C@@H](C)C(=O)N[C@@H]([C@@H](C)O)C(=O)N1)[C@@H](C)O [Compound 49, [19CD]-isoGlu-RC()NTATC()ATQRLAEFLHHSSNNFA-Ile(Me)-LSSTNVGSNTP-NH2] ({C20 diacid-γGlu}-RCNTATCATQRLAEFLHHSSNNFA[NMeI]LSSTNVGSNTP-NH2; disulfide 2-7)
0.14	SS (SS indicates solubility ≥ 1mg/ml)	SS (SS indicates solubility ≥ 1mg/ml)	SS (SS indicates solubility ≥ 1mg/ml)	SS (SS indicates solubility ≥ 1mg/ml)	SS (SS indicates solubility ≥ 1mg/ml)	SS (SS indicates solubility ≥ 1mg/ml)	SS (SS indicates solubility ≥ 1mg/ml)	CC[C@H](C)[C@@H](C(=O)N[C@@H](CC(C)C)C(=O)N[C@@H](CO)C(=O)N[C@@H](CO)C(=O)N[C@H](C(=O)N[C@@H](CC(N)=O)C(=O)N[C@H](C(=O)NCC(=O)N[C@@H](CO)C(=O)N[C@@H](CC(N)=O)C(=O)N[C@H](C(=O)N1CCC[C@H]1C(N)=O)[C@@H](C)O)C(C)C)[C@@H](C)O)N(C)C(=O)[C@H](C)NC(=O)CN(C)C(=O)[C@H](CC(N)=O)NC(=O)[C@H](CC(N)=O)NC(=O)[C@H](CO)NC(=O)[C@H](CO)NC(=O)[C@H](Cc1c[nH]cn1)NC(=O)[C@H](Cc1c[nH]cn1)NC(=O)[C@H](CC(C)C)NC(=O)[C@H](Cc1ccccc1)NC(=O)[C@H](CCC(=O)O)NC(=O)[C@H](C)NC(=O)[C@H](CC(C)C)NC(=O)[C@H](CCCNC(=N)N)NC(=O)[C@H](CCC(N)=O)NC(=O)[C@@H](NC(=O)[C@H](C)NC(=O)[C@@H]1CSSC[C@H](NC(=O)[C@H](CCCNC(=N)N)NC(=O)CC[C@H](NC(=O)CCCCCCCCCCCCCCCCCCC(=O)O)C(=O)O)C(=O)N[C@@H](CC(N)=O)C(=O)N[C@@H]([C@@H](C)O)C(=O)N[C@@H](C)C(=O)N[C@@H]([C@@H](C)O)C(=O)N1)[C@@H](C)O [Compound 50, [19CD]-isoGlu-RC()NTATC()ATQRLAEFLHHSSNN-Gly(Me)-A-Ile(Me)-LSSTNVGSNTP-NH2] ({C20 diacid-γGlu}-RCNTATCATQRLAEFLHHSSNN[Sar]A[NMeI]LSSTNVGSNTP-NH2; disulfide 2-7)

From patent publication EP3046573B1, “AMYLIN ANALOGUES” (Zealand Pharma A/S, priority 2013, dated 2015)
